Measured values published in ChEMBL document CHEMBL1128242, “Polyiodinated triglyceride analogs as potential computed tomography imaging agents for the liver” (J Med Chem, 1995).
Where “and” joins values, the source holds several entries; their conditions need not be identical. Identical values can stand only once.

Key:
Rattus norvegicus [1] = assay: Distribution of radioactivity was determined in lung at 30 min after intravenous administration of [125I]-labeled 2-oleoglycerol 1,3-Bis-[omega-(3-amino-2,4,6-triiodophenyl)alkanoates] in rats; format: ADME, organism-based; details: in vivo, 0.5 h
Rattus norvegicus [2] = assay: Distribution of radioactivity was determined in liver at 30 min after intravenous administration of [125I]-labeled 2-oleoglycerol 1,3-Bis-[omega-(3-amino-2,4,6-triiodophenyl)alkanoates] in rats; format: ADME, organism-based; details: in vivo, 0.5 h
Rattus norvegicus [3] = assay: Polyacrylamide Gel Electrophoresis (PAGE) to determined the concentration of low density lipoprotein (LDL) in rats after iv administration of [125I]-labeled 2-Oleolyl 1,3-disubstituted triglycerols was reported; format: ADME, organism-based; details: in vivo
Rattus norvegicus [4] = assay: Distribution of radioactivity was determined in blood at 30 min after intravenous administration of 1,3-Disubstituted Triacylglycerols in rats; format: ADME, organism-based; details: in vivo, 0.5 h
Rattus norvegicus [5] = assay: Distribution of radioactivity was determined in heart at 3h after intravenous administration of [125I]-labeled 2-oleoglycerol 1,3-Bis-[omega-(3-amino-2,4,6-triiodophenyl)alkanoates] in rats; format: ADME, organism-based; details: in vivo
Rattus norvegicus [6] = assay: Distribution of radioactivity was determined in plasma at 30 min after intravenous administration of [125I]-labeled 2-oleoglycerol 1,3-Bis-[omega-(3-amino-2,4,6-triiodophenyl)alkanoates] in rats; format: ADME, organism-based; details: in vivo, 0.5 h
Rattus norvegicus [7] = assay: Distribution of radioactivity was determined in thyroid at 3h after intravenous administration of [125I]-labeled 2-oleoglycerol 1,3-Bis-[omega-(3-amino-2,4,6-triiodophenyl)alkanoates] in rats; format: ADME, organism-based, Thyroid gland; details: in vivo
Rattus norvegicus [8] = assay: Analysis of lipid-soluble radioactivity in plasma 0.5 hour after iv administration of [125I]-labeled 2-Oleoyl 1,3-disubstituted Triacylglycerols and represented as % CHCl3/CH3OH from rat; format: ADME, organism-based; details: in vivo
Rattus norvegicus [9] = assay: Distribution of radioactivity was determined in blood at 48 hr after intravenous administration of 1,3-Disubstituted Triacylglycerols in rats; format: ADME, organism-based; details: in vivo
Rattus norvegicus [10] = assay: Distribution of radioactivity was determined in liver at 24 hr after intravenous administration of [125I]-labeled 2-oleoglycerol 1,3-Bis-[omega-(3-amino-2,4,6-triiodophenyl)alkanoates] in rats; format: ADME, organism-based; details: in vivo
Rattus norvegicus [11] = assay: Distribution of radioactivity was determined in blood at 3h after intravenous administration of [125I]-labeled 2-oleoglycerol 1,3-Bis-[omega-(3-amino-2,4,6-triiodophenyl)alkanoates] in rats; format: ADME, organism-based; details: in vivo
Rattus norvegicus [12] = assay: Distribution of radioactivity was determined in spleen at 24 hr after intravenous administration of [125I]-labeled 2-oleoglycerol 1,3-Bis-[omega-(3-amino-2,4,6-triiodophenyl)alkanoates] in rats; format: ADME, organism-based; details: in vivo
Rattus norvegicus [13] = assay: Distribution of radioactivity was determined in kidney at 30 min after intravenous administration of [125I]-labeled 2-oleoglycerol 1,3-Bis-[omega-(3-amino-2,4,6-triiodophenyl)alkanoates] in rats; format: ADME, organism-based; details: in vivo, 0.5 h
Rattus norvegicus [14] = assay: Distribution of radioactivity was determined in liver at 3h after intravenous administration of 1,3-Disubstituted Triacylglycerols in rats; format: ADME, organism-based; details: in vivo
Rattus norvegicus [15] = assay: Analysis of lipid-soluble radioactivity in liver 24 hour after iv administration of [125I]-labeled 2-Oleoyl 1,3-disubstituted Triacylglycerols expressed as %parent compound (by TLC with authentic [125I]-labeled standard) from rat; format: ADME, organism-based; details: in vivo
Rattus norvegicus [16] = assay: Polyacrylamide Gel Electrophoresis (PAGE) to determined the concentration of albumin(ALB) in rats after iv administration of [125I]-labeled 2-Oleolyl 1,3-disubstituted triglycerols was reported; format: ADME, organism-based; details: in vivo
Rattus norvegicus [17] = assay: Polyacrylamide Gel Electrophoresis (PAGE) to determined the concentration of below albumin(BA) in rats after iv administration of [125I]-labeled 2-Oleolyl 1,3-disubstituted triglycerols was reported; format: ADME, organism-based; details: in vivo
Rattus norvegicus [18] = assay: Analysis of lipid-soluble radioactivity in liver 0.5 hour after iv administration of [125I]-labeled 2-Oleoyl 1,3-disubstituted Triacylglycerols expressed as %parent compound (by TLC with authentic [125I]-labeled standard) from rat; format: ADME, organism-based; details: in vivo
Rattus norvegicus [19] = assay: Distribution of radioactivity was determined in liver at 30 min after intravenous administration of 1,3-Disubstituted Triacylglycerols in rats; format: ADME, organism-based; details: in vivo, 0.5 h
Rattus norvegicus [20] = assay: Polyacrylamide Gel Electrophoresis (PAGE) to determined the concentration of high density lipoprotein (HDL) in rats after iv administration of [125I]-labeled 2-Oleolyl 1,3-disubstituted triglycerols was reported; format: ADME, organism-based; details: in vivo
Rattus norvegicus [21] = assay: Distribution of radioactivity was determined in lung at 3h after intravenous administration of [125I]-labeled 2-oleoglycerol 1,3-Bis-[omega-(3-amino-2,4,6-triiodophenyl)alkanoates] in rats; format: ADME, organism-based; details: in vivo
Rattus norvegicus [22] = assay: Distribution of radioactivity was determined in blood at 30 min after intravenous administration of [125I]-labeled 2-oleoglycerol 1,3-Bis-[omega-(3-amino-2,4,6-triiodophenyl)alkanoates] in rats; format: ADME, organism-based; details: in vivo, 0.5 h
Rattus norvegicus [23] = assay: Distribution of radioactivity was determined in blood at 24 hr after intravenous administration of [125I]-labeled 2-oleoglycerol 1,3-Bis-[omega-(3-amino-2,4,6-triiodophenyl)alkanoates] in rats; format: ADME, organism-based; details: in vivo
Rattus norvegicus [24] = assay: Analysis of lipid-soluble radioactivity in plasma 0.5 hour after iv administration of [125I]-labeled 2-Oleoyl 1,3-disubstituted Triacylglycerols expressed as %parent compound (by TLC with authentic [125I]-labeled standard) from rat; format: ADME, organism-based; details: in vivo
Rattus norvegicus [25] = assay: Distribution of radioactivity was determined in blood at 24 hr after intravenous administration of 1,3-Disubstituted Triacylglycerols in rats; format: ADME, organism-based; details: in vivo
Rattus norvegicus [26] = assay: Distribution of radioactivity was determined in lung at 24 hr after intravenous administration of [125I]-labeled 2-oleoglycerol 1,3-Bis-[omega-(3-amino-2,4,6-triiodophenyl)alkanoates] in rats; format: ADME, organism-based; details: in vivo
Rattus norvegicus [27] = assay: Distribution of radioactivity was determined in plasma at 3h after intravenous administration of [125I]-labeled 2-oleoglycerol 1,3-Bis-[omega-(3-amino-2,4,6-triiodophenyl)alkanoates] in rats; format: ADME, organism-based; details: in vivo
Rattus norvegicus [28] = assay: Distribution of radioactivity was determined in thyroid at 30 min after intravenous administration of [125I]-labeled 2-oleoglycerol 1,3-Bis-[omega-(3-amino-2,4,6-triiodophenyl)alkanoates] in rats; format: ADME, organism-based, Thyroid gland; details: in vivo, 0.5 h
Rattus norvegicus [29] = assay: Distribution of radioactivity was determined in liver at 48 hr after intravenous administration of 1,3-Disubstituted Triacylglycerols in rats; format: ADME, organism-based; details: in vivo
Rattus norvegicus [30] = assay: Distribution of radioactivity was determined in spleen at 3h after intravenous administration of 1,3-Disubstituted Triacylglycerols in rats; format: ADME, organism-based; details: in vivo
Rattus norvegicus [31] = assay: Distribution of radioactivity was determined in spleen at 30 min after intravenous administration of [125I]-labeled 2-oleoglycerol 1,3-Bis-[omega-(3-amino-2,4,6-triiodophenyl)alkanoates] in rats; format: ADME, organism-based; details: in vivo, 0.5 h
Rattus norvegicus [32] = assay: Distribution of radioactivity was determined in liver at 24 hr after intravenous administration of 1,3-Disubstituted Triacylglycerols in rats; format: ADME, organism-based; details: in vivo
Rattus norvegicus [33] = assay: Analysis of lipid-soluble radioactivity in plasma 24 hour after iv administration of [125I]-labeled 2-Oleoyl 1,3-disubstituted Triacylglycerols and represented as % CHCl3/CH3OH from rat; format: ADME, organism-based; details: in vivo
Rattus norvegicus [34] = assay: Distribution of radioactivity was determined in thyroid at 24 hr after intravenous administration of [125I]-labeled 2-oleoglycerol 1,3-Bis-[omega-(3-amino-2,4,6-triiodophenyl)alkanoates] in rats; format: ADME, organism-based, Thyroid gland; details: in vivo

Row | Distribution of radioactivity (Rattus norvegicus [1]) [% dose/g] | Distribution of radioactivity (Rattus norvegicus [2]) [% dose/g] | Radioactivity (Rattus norvegicus [3]) [%] | Distribution of radioactivity (Rattus norvegicus [4]) [% dose/organ] | Distribution of radioactivity (Rattus norvegicus [5]) [% dose/g] | Distribution of radioactivity (Rattus norvegicus [6]) [% dose/g] | Distribution of radioactivity (Rattus norvegicus [7]) [% dose/g] | Lipid-soluble radioactivity (Rattus norvegicus [8]) | Distribution of radioactivity (Rattus norvegicus [9]) [% dose per organ] | Distribution of radioactivity (Rattus norvegicus [10]) [% dose/g] | Distribution of radioactivity (Rattus norvegicus [11]) [% dose/g] | Distribution of radioactivity (Rattus norvegicus [12]) [% dose/g] | Distribution of radioactivity (Rattus norvegicus [13]) [% dose/g] | Distribution of radioactivity (Rattus norvegicus [14]) [% dose/organ] | Lipid-soluble radioactivity (Rattus norvegicus [15]) | Radioactivity (Rattus norvegicus [16]) [%] | Radioactivity (Rattus norvegicus [17]) [%] | Lipid-soluble radioactivity (Rattus norvegicus [18]) | Radioactivity per organ (Rattus norvegicus [19]) [% dose/organ] | Radioactivity (Rattus norvegicus [20]) [%] | Compound | further results
1 | 0.34 | 9.67 | 7.4 | 2.6 | 0.25 | 0.42 | 5.08 | 88.2 | 0.1 | 10.2 | 0.02 | 21.7 | 0.07 | 80 | 64.7 | 4.9 | 1.5 | 78.6 | 78 | 2.5 | CCCCCCCC/C=C/CCCCCCCC(=O)OC(COC(=O)C(CC)Cc1c(I)cc(I)c(N)c1I)COC(=O)C(CC)Cc1c(I)cc(I)c(N)c1I (configuration not stated) | Distribution of radioactivity (Rattus norvegicus [21]): 0.2 % dose/g; Distribution of radioactivity (Rattus norvegicus [22]): 0.26 % dose/g; Distribution of radioactivity (Rattus norvegicus [23]): 0.01 % dose/g; Lipid-soluble radioactivity (Rattus norvegicus [24]): 26.5; Distribution of radioactivity (Rattus norvegicus [25]): 0.1 % dose/organ; Distribution of radioactivity (Rattus norvegicus [26]): 0.62 % dose/g; Distribution of radioactivity (Rattus norvegicus [27]): 0.03 % dose/g; Distribution of radioactivity (Rattus norvegicus [28]): 2.88 % dose/g; Distribution of radioactivity (Rattus norvegicus [29]): 71.6 % dose/organ; Distribution of radioactivity (Rattus norvegicus [30]): 11.3 % dose/organ; Distribution of radioactivity (Rattus norvegicus [31]): 24.8 % dose/g; Distribution of radioactivity (Rattus norvegicus [32]): 77 % dose/organ; Lipid-soluble radioactivity (Rattus norvegicus [33]): 83; Distribution of radioactivity (Rattus norvegicus [34]): 17.3 % dose/g
2 | 0.72 | 7.9 | 0.6 | 7.6 | 0.1 | 1.25 | 0.27 | 54.2 and 86.3 | 0.1 | 9.09 | 0.04 | 24.2 | 0.1 | 79 | 87.5 | 1.8 | 1.1 | 85.1 | 69.8 | 0.7 | CCCCCCCC/C=C/CCCCCCCC(=O)OC(COC(=O)Cc1c(I)cc(I)c(N)c1I)COC(=O)Cc1c(I)cc(I)c(N)c1I | Distribution of radioactivity (Rattus norvegicus [21]): 0.38 % dose/g; Distribution of radioactivity (Rattus norvegicus [22]): 0.69 % dose/g; Distribution of radioactivity (Rattus norvegicus [23]): 0.01 % dose/g; Distribution of radioactivity (Rattus norvegicus [25]): 0.2 % dose/organ; Distribution of radioactivity (Rattus norvegicus [26]): 0.52 % dose/g; Distribution of radioactivity (Rattus norvegicus [27]): 0.07 % dose/g; Distribution of radioactivity (Rattus norvegicus [28]): 0.16 % dose/g; Distribution of radioactivity (Rattus norvegicus [29]): 59.7 % dose/organ; Distribution of radioactivity (Rattus norvegicus [30]): 14.5 % dose/organ; Distribution of radioactivity (Rattus norvegicus [31]): 23.4 % dose/g; Distribution of radioactivity (Rattus norvegicus [32]): 72.5 % dose/organ; Lipid-soluble radioactivity (Rattus norvegicus [33]): 24.4; Distribution of radioactivity (Rattus norvegicus [34]): 2.58 % dose/g
